Results as given in patent US6932968B1, “Erythropoietin (EPO) peptides and antibodies directed against these” (Dade Behring Marburg GmbH, priority 1989, dated 2005).

Test: Immunization of rabbits with peptide-KLH conjugates, antibody detection by solid-phase ELISA / Western Blot
Type: in vivo
Details: high-titer epitope-specific anti-EPO antibodies
Excerpt: In order to produce antibodies specific for EPO peptides, the peptide-KLH conjugates were emulsified with adjuvants and injected into rabbits in accordance with a 5-week immunization regimen. After this time the animals had produced specific antibodies and were bled.
A solid-phase ELISA was used to assay the sera for peptide or EPO specificity. The content of peptide-specific and EPO-specific antibodies in the antisera or in the antibody fractions which had been purified by affinity chromatography was determined in plastic microtiter plates, which were coated with purified EPO or with EPO peptides, using an enzyme-coupled anti-rabbit-Ig antiserum. In parallel with this, the antibodies were examined in a Western Blot to detect the specific EPO bands of 34–38 kDa.
Rabbits were immunized with […] of antigen per animal on each occasion for a period of 5 weeks. At the first immunization, the animals each received 0.4 mg of antigen in complete Freund's adjuvant (CFA) subcutaneously at 8 immunization sites in the vicinity of the lymph nodes. This was followed 2 weeks later by subcutaneous immunization with 0.8 mg of antigen/animal in CFA. After a further 2 weeks, the animals received intravenous administration of 0.1 mg of antigen in Aerosil on each of 5 consecutive days. 3 days later they were bled, and the individual antisera were obtained.
20 μg/ml EPO or EPO-specific peptides were coupled in carbonate buffer in plastic microtiter plates at 4° C. overnight. Before carrying out the assays, the plates were washed twice with PBS, saturated with PBS/0.5% BSA for 30 minutes and then washed three times with PBS.
The plates saturated with BSA were incubated with dilutions of the anti-EPO rabbit antisera or of the purified antibody fractions for 2 hours. After this time they were washed with PBS and incubated with anti-rabbit Ig anti-serum, which was coupled to alkaline phosphatase, for 2 hours. […] The reaction was stopped with 1 M NaOH after one hour, and the optical density at […] was measured. […]

Row | Sequence | Immunogenicity of the EPO peptide
1 | CDSRVLERYLLEAKEAE [P4/1, EPO peptide, amino-acid positions 7 to 23] | highly immunogenic
2 | SSQPWEPLQLHV [P1/1, EPO peptide, amino-acid positions 84 to 95] | highly immunogenic
3 | KRMEVGQQAVEV [P3/1, EPO peptide, amino-acid positions 52 to 63] | highly immunogenic
